Test results taken from PubChem BioAssay AID2060884 (Molecular Pharmacology Branch, DTP, NCI, 2025).

Tested on: NCI-H929 complex spheroids, viability % test/control
Assay: Anticancer human tumor NCI-H929 cell line growth inhibition [RAS];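 also: compound exposure lasted seven days before viability was read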
Conditions: for IC50: curve of first compound; for viability, T/C: stronger effect = lower value
Excerpt: RAS pathway inhibitors in Combinations in Complex Spheroids
A high-throughput screen of multi-cell type tumor spheroids was designed to identify active combinations of RAS pathway inhibitors and targeted small molecules. Complex spheroids include a stromal component modeled by human endothelial cells (HUVEC) and fibroblasts modeled by human mesenchymal stem cells (MSCs). The concentration ranges selected for each drug and investigational agent were based upon clinically achievable concentrations if the clinical Cmax of the agent was known.
Compounds. The drugs and investigational agents: abemaciclib (NSC768073), cobimetinib (NSC768068), divarasib (GDC6063, NSC841802), docetaxel (NSC628503), GDC-1971 (RLY-1971, NSC841576), gemcitabine (NSC613327), inavolisib (NSC800729), ipatasertib (NSC767898), KB-0742 (NSC834161), MRTX-1133 (NSC836407), osimertinib (NSC779217), RMC-4630 (NSC839698), RMC-6236 (NSC851965), RMC-6291 (NSC852671), Ro-3306 (NSC812927), sapanisertib (NSC764658), SN-38 (NSC673596), staurosporine (NSC755774), SY5609 (NSC837396), and tovorafenib (DAY101, NSC766906), were obtained from the National Cancer Institute (NCI) Developmental Therapeutics Program Chemical Repository. The FDA-approved anticancer drug set is available from the NCI Developmental Therapeutics Program. […] The stock solutions were prepared in dimethyl sulfoxide (DMSO, Sigma-Aldrich, St. Louis, MO, cat. D2650) at 800-fold the tested concentration and stored at -70 degrees C prior to their use. All drugs and investigational agents were tested over a range starting from a high concentration at or near the clinical Cmax and decreasing in half-log increments. If the clinical Cmax for an agent had not been determined, the highest concentration tested was 10 microM.
Cell Culture. All cells were maintained in an incubator at 37 degrees C and 5% CO2 with 95% humidity. The PDC lines were cultured according to standard operating procedures established by the NCI PDMR. All PDCs were thawed and cultured in Matrigel-coated flasks prepared with a working solution of 1X Ham's F-12 nutrient mix, without supplementation (Invitrogen, Waltham, MA, cat. 11765054), 100 U/mL penicillin-streptomycin (Invitrogen, cat. 15140122), and 2.5% Matrigel (Corning Inc., Corning, NY, cat. 354248) for the first three passages. The 362531-283-R-J2-PDC and 782815-120-R-J1-PDC lines were cultured in 6C/Colon 1B media, which includes advanced DMEM/F-12 (Thermo Fisher Scientific, cat. 12634028), 10 mM HEPES (Thermo Fisher Scientific, cat. 15630080), 1X GlutaMAX supplement (Thermo Fisher Scientific, cat. 35050061), 0.1 mg/mL primocin (InvivoGen, San Diego, CA, cat. ant-pm-2), 10% defined fetal bovine serum, heat inactivated (HyClone Laboratories Inc., Logan, UT, cat. SH30070.03HI), 50% L-WRN conditioned media (ATCC, cat. CRL-3276), 1.25 mM N-Acetyl-L-cysteine (Sigma-Aldrich, cat. A9165), 10 mM nicotinamide (Sigma-Aldrich, cat. N0636), 1X B-27 supplement (Thermo Fisher Scientific, cat. 17504044), 1X N-2 supplement (Thermo Fisher Scientific, cat. 17502048), 50 ng/mL human EGF (Thermo Fisher Scientific, cat. PHG0311), and 10 microM Y-27632 dihydrochloride (Tocris Bioscience, cat. 1254). The K12877-001-R-J1-PDC line was cultured in 6I media, which includes all 6C/Colon 1B media plus 10 ng/mL human FGF-10 (PeproTech, cat. 100-26), 1 ng/mL human FGF-2 (PeproTech, cat. 100-18B), 1 µM prostaglandin E2 (Tocris Bioscience, cat. 2296), […] hydrocortisone (Sigma-Aldrich, cat. H4001), and […] bovine insulin (Sigma-Aldrich, cat. I6634). The K86415-001-R-J1-PDC line was cultured in 6D media, which includes all 6C/Colon 1B media components minus the L-WRN conditioned media. The 485176-168-R4-J1-PDC was cultured in PANC media, which includes all 6C/Colon 1B media plus 100 ng/mL human FGF-10 (PeproTech, cat. 100-26), 500 nM SB-431542 (Selleckchem, cat. S1067), and 10 nM gastrin (Tocris Bioscience, cat. 3006). […]

[1] = second compound 0.000949 µM, first compound 0.0316 µM
[2] = second compound 0.000949 µM, first compound 0.1 µM
[3] = second compound 0.000949 µM, first compound 0.316 µM
[4] = second compound 0.000949 µM, first compound 1 µM
[5] = second compound 0.000949 µM, first compound 3.16 µM
[6] = second compound 0.000949 µM, first compound 10 µM
[7] = second compound 0.003 µM, first compound 0.0316 µM
[8] = second compound 0.003 µM, first compound 0.1 µM
[9] = second compound 0.003 µM, first compound 0.316 µM
[10] = second compound 0.003 µM, first compound 1 µM
[11] = second compound 0.003 µM, first compound 3.16 µM
[12] = second compound 0.003 µM, first compound 10 µM
[13] = second compound 0.00949 µM, first compound 0.0316 µM
[14] = second compound 0.00949 µM, first compound 0.1 µM
[15] = second compound 0.00949 µM, first compound 0.316 µM
[16] = second compound 0.00949 µM, first compound 1 µM
[17] = second compound 0.00949 µM, first compound 3.16 µM
[18] = second compound 0.00949 µM, first compound 10 µM
[19] = second compound 0.03 µM, first compound 0.0316 µM
[20] = second compound 0.03 µM, first compound 0.1 µM
[21] = second compound 0.03 µM, first compound 0.316 µM
[22] = second compound 0.03 µM, first compound 1 µM
[23] = second compound 0.03 µM, first compound 3.16 µM
[24] = second compound 0.03 µM, first compound 10 µM
[25] = second compound 0.0949 µM, first compound 0.0316 µM
[26] = second compound 0.0949 µM, first compound 0.1 µM
[27] = second compound 0.0949 µM, first compound 0.316 µM
[28] = second compound 0.0949 µM, first compound 1 µM
[29] = second compound 0.0949 µM, first compound 3.16 µM
[30] = second compound 0.0949 µM, first compound 10 µM
[31] = second compound 0.3 µM, first compound 0.0316 µM
[32] = second compound 0.3 µM, first compound 0.1 µM
[33] = second compound 0.3 µM, first compound 0.316 µM
[34] = second compound 0.3 µM, first compound 1 µM
[35] = second compound 0.3 µM, first compound 3.16 µM
[36] = second compound 0.3 µM, first compound 10 µM

Compound `CC(C)NCC(C(=O)N1CCN(c2ncnc3c2C(C)CC3O)CC1)c1ccc(Cl)cc1` (centres undefined) + CCn1c(-c2cccnc2C(C)OC)c2c3cc(ccc31)N1CCOC(CC(NC(=O)C(C(C)C)N(C)C(=O)C3(F)CCN(C(=O)C#CC(C)(C)N(C)C)CC3)C(=O)N3CCCC(N3)C(=O)OCC(C)(C)C2)C1 has an IC50 (second compound 0.000949 µM) of 1310 nM, an IC50 (second compound 0.003 µM) of 1430 nM and an IC50 (second compound 0.00949 µM) of 1640 nM. For the same compound, the IC50 (second compound 0.03 µM) was 1450 nM, the IC50 (second compound 0.0949 µM) was 1200 nM and the IC50 (second compound 0.3 µM) was 986 nM. It also gave a viability, T/C [1] of 106%, a viability, T/C [2] of 96.4% and a viability, T/C [3] of 98.7%. The viability, T/C [4] was 59.4%, the viability, T/C [5] was 16.5% and the viability, T/C [6] was 2.67%. It also gave a viability, T/C [7] of 99.5%, a viability, T/C [8] of 101% and a viability, T/C [9] of 95%. The viability, T/C [10] was 65.4%, the viability, T/C [11] was 15.5% and the viability, T/C [12] was 2.08%. The viability, T/C [13] was 98.6%, the viability, T/C [14] was 97% and the viability, T/C [15] was 99%. For the same compound, the viability, T/C [16] was 68.7%, the viability, T/C [17] was 23.8% and the viability, T/C [18] was 2.36%. It also gave a viability, T/C [19] of 101%, a viability, T/C [20] of 100% and a viability, T/C [21] of 98.5%. It also gave a viability, T/C [22] of 67.7%, a viability, T/C [23] of 12.6% and a viability, T/C [24] of 1.6%. The viability, T/C [25] was 101%, the viability, T/C [26] was 102% and the viability, T/C [27] was 97.4%. For the same compound, the viability, T/C [28] was 57.4%, the viability, T/C [29] was 9.37% and the viability, T/C [30] was 1.65%. It also gave a viability, T/C [31] of 103%, a viability, T/C [32] of 103% and a viability, T/C [33] of 95.1%. For the same compound, the viability, T/C [34] was 49.6%, the viability, T/C [35] was 6.6% and the viability, T/C [36] was 1.34%.
`CCC(CC)c1cc(NC2CCC(N)C2)n2nccc2n1` (centres undefined) + CCn1c(-c2cc(N3CCN(C)CC3)cnc2C(C)OC)c2c3cc(ccc31)-c1csc(n1)CC(NC(=O)C1CC1C)C(=O)N1CCCC(N1)C(=O)OCC(C)(C)C2 showed an IC50 (second compound 0.000949 µM) of 1430 nM, an IC50 (second compound 0.003 µM) of 1620 nM and an IC50 (second compound 0.00949 µM) of 738 nM. It also gave an IC50 (second compound 0.03 µM) of under 31.6 nM, an IC50 (second compound 0.0949 µM) of under 31.6 nM and an IC50 (second compound 0.3 µM) of under 31.6 nM. It also gave a viability, T/C [1] of 104%, a viability, T/C [2] of 94.4% and a viability, T/C [3] of 101%. It also gave a viability, T/C [4] of 72.3%, a viability, T/C [5] of 0.36% and a viability, T/C [6] of 0.25%. The viability, T/C [7] was 96.1%, the viability, T/C [8] was 93.5% and the viability, T/C [9] was 102%. The viability, T/C [10] was 85.8%, the viability, T/C [11] was 0.43% and the viability, T/C [12] was 0.14%. For the same compound, the viability, T/C [13] was 114%, the viability, T/C [14] was 117% and the viability, T/C [15] was 115%. For the same compound, the viability, T/C [16] was 26.6%, the viability, T/C [17] was 0.16% and the viability, T/C [18] was 0.13%. It also gave a viability, T/C [19] of 36.7%, a viability, T/C [20] of 34.9% and a viability, T/C [21] of 49.8%. For the same compound, the viability, T/C [22] was 2.49%, the viability, T/C [23] was 0.12% and the viability, T/C [24] was 0.1%. It also gave a viability, T/C [25] of 6.21%, a viability, T/C [26] of 6.5% and a viability, T/C [27] of 6.35%. The viability, T/C [28] was 0.97%, the viability, T/C [29] was 0.11% and the viability, T/C [30] was 0.09%. The viability, T/C [31] was 4.59%, the viability, T/C [32] was 3.76% and the viability, T/C [33] was 2.94%. The viability, T/C [34] was 1.37%, the viability, T/C [35] was 0.14% and the viability, T/C [36] was 0.12%.
